Measured values as given in US7820439B2, “In vitro generation of GABAergic neurons from pluripotent stem cells” (Reliance Life Sciences PVT Ltd., priority 2003, dated 2010).

Tested on: neuronal progenitor cells derived from murine ES cells
Assay: Differentiation of neuronal progenitor cells into GABAergic neurons in differentiation media containing Ara-C
Assay type: cell-based
Procedure: The expanded neuronal progenitor cells were differentiated by culturing the cells in a differentiation media containing Neurobasal A medium (Gibco), FCS (10-20%) (HYCLONE), and B27 supplement (2-10%) (Gibco), but no β-FGF. Additionally, the differentiation media contained factors to enhance GABAergic neuron yield, preferably Ara-C (Sigma Chemical Co. USA). […] After 3 days of culture in the differentiation media containing Ara-C, the cells were grown in the same media without Ara-C for 8, 12, or 16 days. When the neuronal progenitor cells were cultured in differentiation media containing Ara-C for 3 days, and the cells were then grown in differentiation media without Ara-C for 16 days, at least about 60% of the neuronal progenitor cells differentiated into GABAergic neurons (FIG. 6).
The differentiated neuronal cell types generated according to the present disclosure were evaluated both by the overall morphology of the cells, as well as the phenotypes identified by immunoflourescence. […]
The cells were then incubated overnight at 4° C. with a primary antibody (antibody dilution was made in 1% BSA). […] The chamber slides were observed under fluorescence microscope to evaluate the immunopositive cells in the different stages of differentiation. […]

## cytosine β-d-Arabino furanoside [Ara-C]
Ara-C 20 ug/ml in differentiation media
  percentage of GABAergic neurons in the neuronal population derived from murine ES cells: increased the percentage of GABAergic neurons
Differentiation media containing Ara-C for 3 days, then without Ara-C for 16 days (FIG. 6)
  neuronal progenitor cells differentiated into GABAergic neurons: at least 60%
